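48-hour exposure; five concentrations; linearly interpolated endpoints. At the TGI there is no net growth.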
Tests used:
Experiment in all cases: DTP human tumour cell line panel, 48 h
786-0 renal = test system: 786-0 renal
A498 renal = test system: A498 renal
CCRF-CEM leukemia = test system: CCRF-CEM leukemia
HCC-2998 colon = test system: HCC-2998 colon
HCT-116 colon = test system: HCT-116 colon
MCF7 breast = test system: MCF7 breast
MDA-MB-231 breast = test system: MDA-MB-231 breast
MDA-MB-435 = test system: MDA-MB-435
MDA-N = test system: MDA-N
MOLT-4 leukemia = test system: MOLT-4 leukemia
NCI-H23 lung = test system: NCI-H23 lung
NCI-H522 lung = test system: NCI-H522 lung
NCI/ADR-RES ovarian = test system: NCI/ADR-RES ovarian
SK-MEL-2 melanoma = test system: SK-MEL-2 melanoma
SK-MEL-5 melanoma = test system: SK-MEL-5 melanoma
SNB-75 CNS = test system: SNB-75 CNS
SR leukemia = test system: SR leukemia
UACC-62 melanoma = test system: UACC-62 melanoma
TK-10 renal = test system: TK-10 renal
HS 578T breast = test system: HS 578T breast

Row | Structure (SMILES) | TGI (786-0 renal) [µM] | TGI (A498 renal) [µM] | TGI (CCRF-CEM leukemia) [µM] | TGI (HCC-2998 colon) [µM] | TGI (HCT-116 colon) [µM] | TGI (MCF7 breast) [µM] | TGI (MDA-MB-231 breast) [µM] | TGI (MDA-MB-435) [µM] | TGI (MDA-N) [µM] | TGI (MOLT-4 leukemia) [µM] | TGI (NCI-H23 lung) [µM] | TGI (NCI-H522 lung) [µM] | TGI (NCI/ADR-RES ovarian) [µM] | TGI (SK-MEL-2 melanoma) [µM] | TGI (SK-MEL-5 melanoma) [µM] | TGI (SNB-75 CNS) [µM] | TGI (SR leukemia) [µM] | TGI (UACC-62 melanoma) [µM] | TGI (TK-10 renal) [µM] | TGI (HS 578T breast) [µM]
1 | COc1c2cc(C(C)(C)C)cc1Cc1cccc(c1OCc1cccc([N+](=O)[O-])c1)Cc1cc(C(C)(C)C)cc(c1OC)Cc1cccc(c1OCc1cccc([N+](=O)[O-])c1)Cc1cc(C(C)(C)C)cc(c1OC)Cc1cccc(c1OCc1cccc([N+](=O)[O-])c1)C2 | > 50 | > 50 | > 5 | > 50 | > 50 | > 50 | > 50 | > 50 | > 50 | > 50 | > 50 | > 50 | > 50 | > 50 | > 50 | > 50 | > 50 | > 50 |  | 
2 | CC(C)=CC1C[C@H](C2CC=C3C2(C)CCC2[C@@]3(C)C(=O)CC3[C@]2(C)C=CC(=O)[C@]3(C)CO)CO1 (some centres undefined) | 15.7 | 23.2 | 8.71 | 30 | 10.2 |  |  |  |  | 8.43 | 19.1 | 8.71 |  | 14.8 | 25 | 23.1 | 10.8 | 31 | 52.4 | 
3 | NCCCOc1ccc([N+](=O)[O-])cc1Cl | > 100 |  | > 100 | > 100 | > 100 |  |  |  |  | > 100 | > 100 | 18.2 |  | > 100 | > 100 | > 100 | > 100 | > 100 | > 100 | 
4 | O=c1cc(-c2ccccc2)[nH]c2ccc(N3CCOCC3)cc12 | 38.1 | 73.5 |  | > 100 | > 100 | > 93.5 | > 100 | > 100 |  | > 100 |  | 0.404 | > 100 | > 100 | 14.3 |  |  | > 100 | > 100 | > 100
5 | S=c1nc(N2CCCCC2)c2cn[nH]c2[nH]1 | > 100 | > 100 | > 100 | > 100 | > 100 | > 100 | > 100 | > 100 |  |  | > 100 | 41.4 | > 100 | 74.8 | > 100 | > 100 | 40.7 | > 100 | > 100 | > 100
6 | O=C(O)c1cc(CC2Cc3cc4c(cc3C2=O)CCC4)cc2c1CCC2 (centres undefined) | > 100 | > 100 | > 100 | > 100 | > 100 | > 100 | > 100 | > 100 |  | > 100 | > 100 | > 100 | > 100 | > 100 |  | > 100 | > 100 | > 100 | > 100 | > 100
7 | CCc1cc2c(c3c1CCC3=O)CC1(Cc3ccc(C)cc3C1)C2 (centres undefined) | > 100 | > 100 | 34.7 | > 100 | 33.1 | > 100 | > 100 | > 100 | > 100 | 68.7 | > 100 | > 100 | > 100 | 67.6 | 76.8 |  |  | > 100 | > 100 | 86.9

Source: PubChem BioAssay (NCI)
